Laboratory results from publication PMC10743905, “Design, Synthesis, and In Vitro and In Vivo Bioactivity Studies of Hydrazide–Hydrazones of 2,4-Dihydroxybenzoic Acid” (International Journal of Molecular Sciences, 2023).
≈ marks a conversion by molar mass, not a printed value. Like-named read-outs stand apart in the source and are kept apart here.

Key:
[1] = tested on: Micrococcus luteus ATCC 10240; assay: Broth microdilution MIC/MBC; format: cell-based; conditions: for MBC: ATCC10240; for MIC: ATCC10240, read-out: MIC
Description: (§1) In vitro antimicrobial activity assays - Methodology
(§2) The examined compounds 1 - 24 were screened in vitro for antibacterial and antifungal activities using the broth microdilution method according to procedure reported earlier by our research group and European Committee on Antimicrobial Susceptibility Testing (EUCAST) and Clinical and Laboratory Standards Institute (CLSI) guidelines against a panel of reference and clinical or saprophytic strains of microorganisms, in-cluding Gram-positive bacteria, Staphylococcus aureus ATCC 43300 (Methicillin Resistant S. aureus – MRSA), Staphylococcus aureus ATCC 29213 (Methicillin Susceptible S. aureus – MSSA), Staphylococcus epidermidis ATCC 12228, Enterococcus faecalis ATCC 29212, Micro-coccus luteus ATCC 10240, Bacillus subtilis ATCC 6633 and Bacillus cereus ATCC 10876), Gram-negative bacteria (Bordetella bronchiseptica ATCC 4617, Escherichia coli ATCC 25922, Klebsiella pneumoniae ATCC 13883, Proteus mirabilis ATCC 12453, Salmonella typhimurium ATCC 14028 and Pseudomonas aeruginosa ATCC 9027) and fungi belonging to yeasts (Can-dida albicans ATCC 10231, Candida albicans ATCC 2091, Candida parapsilosis ATCC 22019, Candida glabrata ATCC 90030 and Candida krusei ATCC 14243). The microorganisms be-longing to ATCC came from American Type Culture Collection, routinely used for the evaluation of antimicrobials. […]
(§3) Samples containing examined compounds were dissolved in dimethyl sulfoxide (DMSO). […]
(§4) Subsequently, the MIC (Minimal Inhibitory Concentration) of the compounds was ex-amined by the microdilution broth method, using their two-fold dilutions in Mueller- […]
(§5) Hinton broth or (for bacteria) and RPMI 1640 broth with MOPS (for fungi) prepared in 96-well polystyrene plates. Final concentrations of the compounds ranged from 1000 to 0.488 µg/ml. Microbial suspensions were prepared in 0.85% NaCl with an optical density of 0.5 McFarland standard. Next each bacterial or fungal suspension was added per each well containing broth and various concentrations of the examined compounds. After incuba-

[2] = tested on: Salmonella typhimurium ATCC 14028; assay: Broth microdilution MIC/MBC; format: cell-based; conditions: Salmonella enterica
Description: as §1, §2, §3, §4, §5

[3] = tested on: Staphylococcus aureus ATCC 29213; assay: Broth microdilution MIC/MBC; format: cell-based; conditions: for MBC / MIC: ATCC29213
Description: as §1, §2, §3, §4, §5

[4] = tested on: Proteus mirabilis ATCC 12453; assay: Broth microdilution MIC/MBC; format: cell-based; conditions: ATCC12453
Description: as §1, §2, §3, §4, §5

[5] = tested on: Staphylococcus aureus ATCC 43300; assay: Broth microdilution MIC/MBC; format: cell-based; conditions: Staphylococcus aureus ATCC 43300 (MRSA)
Description: as §1, §2, §3, §4, §5

[6] = tested on: Pseudomonas aeruginosa ATCC 9027; assay: Broth microdilution MIC/MBC; format: cell-based; conditions: ATCC9027
Description: as §1, §2, §3, §4, §5

[7] = tested on: Staphylococcus epidermidis ATCC 12228; assay: Broth microdilution MIC/MBC; format: cell-based; conditions: for MIC: ATCC12228, read-out: MIC; for MBC: ATCC12228
Description: as §1, §2, §3, §4, §5

[8] = tested on: Candida albicans ATCC 2091; assay: Broth microdilution MIC/MFC; format: cell-based; conditions: for MIC: ATCC2091, read-out: MIC
Description: as §1
as §2, with “antimicrobials. All the used microbial cultures were first subcultured on nu-trient agar or Sabouraud agar at 35°C for 18-24 h or 30°C for 24-48 h for bacteria and fungi,” for “antimicrobials.”
(§6) The surface of Mueller-Hinton agar (for bacteria) and RPMI 1640 with MOPS (for fungi) were inoculated with the suspensions of bacterial or fungal species. Microbial suspensions were prepared in sterile saline with an optical density of McFarland standard scale 0.5.
(§7) Samples containing examined compounds were dissolved in dimethyl sulfoxide (DMSO).
(§8) Furthermore, bacterial and fungal suspensions were put onto Petri dishes with solid me-dia containing 2 mg/mL of the tested compounds followed incubation at 37°C for 24h and 30°C for 48h for bacteria and fungi, respectively. The inhibition of microbial growth was judged by comparison with a control culture prepared without any sample tested. Ciprof-loxacin, vancomycin, nitrofurantoin, cefuroxime, ampicillin or nystatin (Sigma) were used as a reference antibacterial or antifungal compounds, respectively.
as §4, §5

[9] = tested on: Candida glabrata ATCC 90030; assay: Broth microdilution MIC/MFC; format: cell-based; conditions: Nakaseomyces glabratus, ATCC90030, read-out: MIC
Description: as §1
as §2, with “antimicrobials. All the used microbial cultures were first subcultured on nu-trient agar or Sabouraud agar at 35°C for 18-24 h or 30°C for 24-48 h for bacteria and fungi,” for “antimicrobials.”
as §6, §7, §8, §4, §5

[10] = tested on: Candida albicans ATCC 10231; assay: Broth microdilution MIC/MFC; format: cell-based; conditions: for MIC: ATCC10231, read-out: MIC
Description: as §1
as §2, with “antimicrobials. All the used microbial cultures were first subcultured on nu-trient agar or Sabouraud agar at 35°C for 18-24 h or 30°C for 24-48 h for bacteria and fungi,” for “antimicrobials.”
as §6, §7, §8, §4, §5

[11] = tested on: Candida krusei ATCC 14243; assay: Broth microdilution MIC/MFC; format: cell-based; conditions: Pichia kudriavzevii, ATCC14243, read-out: MIC
Description: as §1
as §2, with “antimicrobials. All the used microbial cultures were first subcultured on nu-trient agar or Sabouraud agar at 35°C for 18-24 h or 30°C for 24-48 h for bacteria and fungi,” for “antimicrobials.”
as §6, §7, §8, §4, §5

[12] = tested on: Candida parapsilosis ATCC 22019; assay: Broth microdilution MIC/MFC; format: cell-based; conditions: for MIC: ATCC22019, read-out: MIC
Description: as §1
as §2, with “antimicrobials. All the used microbial cultures were first subcultured on nu-trient agar or Sabouraud agar at 35°C for 18-24 h or 30°C for 24-48 h for bacteria and fungi,” for “antimicrobials.”
as §6, §7, §8, §4, §5

[13] = tested on: Escherichia coli ATCC 25922; assay: Broth microdilution MIC/MBC; format: cell-based; conditions: ATCC25922
Description: as §1
as §2, with “antimicrobials. All the used microbial cultures were first subcultured on nu-trient agar or Sabouraud agar at 35°C for 18-24 h or 30°C for 24-48 h for bacteria and fungi,” for “antimicrobials.”
as §6, §7, §8, §4, §5

[14] = tested on: Enterococcus faecalis ATCC 29212; assay: Broth microdilution MIC/MBC; format: cell-based; conditions: for MBC: ATCC29212, read-out: MBC; for MIC: ATCC29212, read-out: MIC
Description: as §1
as §2, with “antimicrobials. All the used microbial cultures were first subcultured on nu-trient agar or Sabouraud agar at 35°C for 18-24 h or 30°C for 24-48 h for bacteria and fungi,” for “antimicrobials.”
as §6, §7, §8, §4, §5

[15] = tested on: Bordetella bronchiseptica ATCC 4617; assay: Broth microdilution MIC/MBC; format: cell-based; conditions: ATCC4617
Description: as §1
as §2, with “antimicrobials. All the used microbial cultures were first subcultured on nu-trient agar or Sabouraud agar at 35°C for 18-24 h or 30°C for 24-48 h for bacteria and fungi,” for “antimicrobials.”
as §6, §7, §8, §4, §5

[16] = tested on: Klebsiella pneumoniae ATCC 13883; assay: Broth microdilution MIC/MBC; format: cell-based; conditions: ATCC13883
Description: as §1
as §2, with “antimicrobials. All the used microbial cultures were first subcultured on nu-trient agar or Sabouraud agar at 35°C for 18-24 h or 30°C for 24-48 h for bacteria and fungi,” for “antimicrobials.”
as §6, §7, §8, §4, §5

[17] = tested on: Bacillus cereus ATCC 10876; assay: Broth microdilution MIC/MBC; format: cell-based; conditions: for MBC: ATCC10876
Description: as §1
as §2, with “antimicrobials. All the used microbial cultures were first subcultured on nu-trient agar or Sabouraud agar at 35°C for 18-24 h or 30°C for 24-48 h for bacteria and fungi,” for “antimicrobials.”
as §6, §7, §8, §4, §5

[18] = tested on: Bacillus subtilis ATCC 6633; assay: Broth microdilution MIC/MBC; format: cell-based; conditions: for MBC: ATCC6633; for MIC: ATCC6633, read-out: MIC
Description: Detailed procedures are presented in the Supplementary Materials. […]
as §1
as §2, with “antimicrobials. All the used microbial cultures were first subcultured on nu-trient agar or Sabouraud agar at 35°C for 18-24 h or 30°C for 24-48 h for bacteria and fungi,” for “antimicrobials.”
as §6, §7, §8, §4, §5

MBC/MIC [1] | MIC [1] | MIC [2] | MIC [3] | MIC [4] | MIC [5] | MIC [6] | MIC [7] | MIC [8] | MIC [9] | MIC [10] | MIC [11] | MIC ([12]; Lodderomyces parapsilosis) | MIC [13] | MIC [14] | MIC [15] | MIC [16] | MIC ([17]; ATCC10876, read-out: MIC) | MIC [18] | SMILES | MBC [1] | also measured
> 2 | 500 µg/mL (≈ 1660 µM) | > 1000 µg/mL | 1000 µg/mL (≈ 3330 µM) | > 1000 µg/mL | > 1000 µg/mL | > 1000 µg/mL | > 1000 µg/mL | 500 µg/mL (≈ 1660 µM) | > 1000 µg/mL | 1000 µg/mL (≈ 3330 µM) | > 1000 µg/mL | > 1000 µg/mL | > 1000 µg/mL | 1000 µg/mL (≈ 3330 µM) | > 1000 µg/mL | > 1000 µg/mL | 500 µg/mL (≈ 1660 µM) | 500 µg/mL (≈ 1660 µM) | CCOc1ccc(/C=N/NC(=O)c2ccc(O)cc2O)cc1 [Compound 5, N-[(4-ethoxyphenyl)methylidene]-2,4-dihydroxybenzohydrazide] | > 1000 µg/mL | MBC/MIC [3]: > 1; MBC [3]: > 1000 µg/mL; MFC/MIC [8]: > 2; MFC ([8]; ATCC2091, read-out: MFC): > 1000 µg/mL; MFC/MIC [10]: > 1; MFC ([10]; ATCC10231, read-out: MFC): > 1000 µg/mL; MBC/MIC [14]: > 1; MBC [14]: > 1000 µg/mL; MBC/MIC [17]: > 2; MBC [17]: > 1000 µg/mL; MBC/MIC [18]: > 2; MBC [18]: > 1000 µg/mL; melting point: 248 °C
4 | 125 µg/mL (≈ 390 µM) | > 1000 µg/mL | 31.2 µg/mL (≈ 97.4 µM) | > 1000 µg/mL | 15.6 µg/mL (≈ 48.7 µM) | > 1000 µg/mL | 62.5 µg/mL (≈ 195 µM) | > 1000 µg/mL | > 1000 µg/mL | > 1000 µg/mL | > 1000 µg/mL | > 1000 µg/mL | > 1000 µg/mL | 125 µg/mL (≈ 390 µM) | > 1000 µg/mL | > 1000 µg/mL | 15.6 µg/mL (≈ 48.7 µM) | 125 µg/mL (≈ 390 µM) | COc1ccc(/C=N/NC(=O)c2ccc(O)cc2O)cc1Cl [Compound 9, N-[(3-chloro-4-methoxyphenyl)methylidene]-2,4-dihydroxybenzohydrazide] | 500 µg/mL (≈ 1560 µM) | MBC/MIC [3]: 1; MBC [3]: 31.2 µg/mL (≈ 97.4 µM); MBC [5]: 62.5 µg/mL (≈ 195 µM); MBC/MIC [5]: 4; MBC/MIC [7]: 2; MBC [7]: 125 µg/mL (≈ 390 µM); MBC/MIC [14]: 4; MBC [14]: 500 µg/mL (≈ 1560 µM); MBC/MIC [17]: 4; MIC [17]: 15.62 µg/mL (≈ 48.7 µM); MBC [17]: 62.5 µg/mL (≈ 195 µM); MBC/MIC [18]: 4; MBC [18]: 500 µg/mL (≈ 1560 µM); melting point: 256 °C
> 2 | 500 µg/mL (≈ 1310 µM) | > 1000 µg/mL | > 1000 µg/mL | > 1000 µg/mL | > 1000 µg/mL | > 1000 µg/mL | 1000 µg/mL (≈ 2620 µM) | > 1000 µg/mL | > 1000 µg/mL | > 1000 µg/mL | > 1000 µg/mL | 1000 µg/mL (≈ 2620 µM) | > 1000 µg/mL | > 1000 µg/mL | > 1000 µg/mL | > 1000 µg/mL | > 1000 µg/mL | > 1000 µg/mL | COc1ccc(/C=N/NC(=O)c2ccc(O)cc2O)c(Br)c1O [Compound 15, N-[(2-bromo-3-hydroxy-4-methoxyphenyl)methylidene]-2,4-dihydroxybenzohydrazide] | > 1000 µg/mL | MBC/MIC [7]: > 1; MBC [7]: > 1000 µg/mL; MFC/MIC [12]: > 1; MFC ([12]; Lodderomyces parapsilosis, ATCC22019, read-out: MFC): > 1000 µg/mL; melting point: 244 °C
